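Where inhibition never reached the appropriate level, the endpoint shown equals the highest concentration tested. Otherwise, values were interpolated linearly from a five-concentration, 48-hour dose response in 96-well plates. GI50 = concentration required for 50% inhibition of growth.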 The source made the active and inactive calls. No stated cut-off is given here; in the data, active = GI50 up to about 1.1 µM and inactive = higher. Where a SMILES comes first, the peptide text is derived from it. The star is where a group is joined. Boc = CC(C)(C)OC(=O)*
Legend:
Assay in all cases: NCI tumour cell line growth inhibition, 48 h
HOP-18 = system: HOP-18
DMS-273 = system: DMS-273
KM-20L2 = system: KM-20L2
DMS-114 = system: DMS-114
LXFL 529 = system: LXFL 529
M19-MEL = system: M19-MEL
XF498 = system: XF498
BT-549 = system: BT-549
RXF 631 = system: RXF 631

In the case of `COc1cc(C2C(Cl)C(=O)N2n2cnc3ccccc3c2=O)cc(OC)c1OC` (stereo unspecified), the GI50 (HOP-18) is reported as > 100 µM (inactive), the GI50 (DMS-273) is reported as 41 µM (inactive) and the GI50 (KM-20L2) is reported as 64.3 µM (inactive). For the same molecule, the GI50 (DMS-114) was 43.4 µM (inactive), the GI50 (LXFL 529) was > 100 µM (inactive) and the GI50 (M19-MEL) was > 100 µM (inactive). The GI50 (XF498) was > 100 µM (inactive).
With `COc1ccc(/C=C(/C#N)C(N)=O)c(OC)c1` the GI50 (BT-549) was > 100 µM (inactive).
`COc1ccc(/C=C2\N=C(c3ccccc3)OC2=O)cc1OC(C)=O` was tested, and the GI50 (BT-549) was > 100 µM (inactive).
`CCOC1C=CC(=O)C(CO)O1` (stereo unspecified) was tested, and the GI50 (BT-549) was 11.6 µM (inactive).
For `CC(C)(C)OC(=O)NC(Cc1ccc(OCc2ccccc2)cn1)C(N)=O` (stereo unspecified), the GI50 (BT-549) was > 100 µM (inactive).
In the case of `CCOC(=O)c1nc2ccc(C(F)(F)F)cc2nc1Nc1ccc(F)cc1`, the GI50 (BT-549) is reported as > 100 µM (inactive).
In the case of `Cc1ccc(C(=O)c2[nH]c(NCc3ccccc3)c(C(=S)Nc3ccccc3)c2N)cc1`, the GI50 (BT-549) is reported as 7.94 µM (inactive).
For `FC(F)(F)c1ccccc1N1CCN(c2nc(-c3cccs3)nc3ccc(Br)cc23)CC1`, the GI50 (BT-549) was 50 µM (inactive).
`CCCCCCC(C)CC(CCCCCC)NCCOC(=O)c1ccc([N+](=O)[O-])cc1` (stereo unspecified) was tested, and the GI50 (BT-549) was 16.4 µM (inactive).
With `COc1cc(C2SCC(=O)N2c2cccc(Cl)c2)cc(OC)c1OC` (stereo unspecified) the GI50 (BT-549) was 26.4 µM (inactive).
For `COC(=O)[C@]12CC=C3O[C@@H]4OC5(CCCCC5)O[C@@H]4[C@H]3C1C(=O)C=CC2=O` (stereo partly specified), the GI50 (HOP-18) was 18.5 µM (inactive), the GI50 (DMS-273) was 18.1 µM (inactive) and the GI50 (BT-549) was 19.2 µM (inactive). For the same molecule, the GI50 (KM-20L2) was 19.7 µM (inactive), the GI50 (DMS-114) was 17.5 µM (inactive) and the GI50 (LXFL 529) was 9.84 µM (inactive). For the same molecule, the GI50 (M19-MEL) was 16 µM (inactive) and the GI50 (XF498) was 12.6 µM (inactive).
For `COC(=O)[C@H](COC(C)(C)C)NC(=O)N[C@H](C)c1ccccc1`, the GI50 (BT-549) was > 100 µM (inactive).
`COC(=O)c1cc(S(=O)(=O)NC2=NNC(C)CN2)c(S)cc1Cl` (stereo unspecified) was tested, and the GI50 (BT-549) was > 100 µM (inactive).
With `Cc1cccc2c1NC(=S)[C@@H]1CCCN1C2=O` the GI50 (BT-549) was > 100 µM (inactive).
With `OC12c3ccccc3C1CCCCCCCCCC21OCCCO1` (stereo unspecified) the GI50 (HOP-18) was > 100 µM (inactive), the GI50 (DMS-273) was > 100 µM (inactive) and the GI50 (DMS-114) was > 100 µM (inactive). The GI50 (LXFL 529) was > 100 µM (inactive), the GI50 (M19-MEL) was > 100 µM (inactive) and the GI50 (XF498) was > 100 µM (inactive).
With `CC(=O)Nc1ccc(-c2nnc(SCC(=O)Nc3cccc([N+](=O)[O-])c3)o2)cc1` the GI50 (HOP-18) was 21.1 µM (inactive), the GI50 (DMS-273) was 10.9 µM (inactive) and the GI50 (KM-20L2) was 17.8 µM (inactive). The GI50 (DMS-114) was 10.2 µM (inactive), the GI50 (LXFL 529) was 2.99 µM (inactive) and the GI50 (M19-MEL) was 15.1 µM (inactive).
For `CCCCCCCC(=O)OC[C@H](C[As](=O)(O)O)OC(=O)CCCCCCC`, the GI50 (HOP-18) was 22 µM (inactive), the GI50 (DMS-273) was 11.3 µM (inactive) and the GI50 (KM-20L2) was 16.6 µM (inactive). The GI50 (DMS-114) was 6.84 µM (inactive), the GI50 (LXFL 529) was 9.55 µM (inactive) and the GI50 (M19-MEL) was 13.3 µM (inactive).
In the case of `Cc1ccc(S(=O)(=O)OC2CSSCC2OS(=O)(=O)c2ccc(C)cc2)cc1` (stereo unspecified), the GI50 (HOP-18) is reported as 17.4 µM (inactive), the GI50 (DMS-273) is reported as 10.1 µM (inactive) and the GI50 (KM-20L2) is reported as 14 µM (inactive). For the same molecule, the GI50 (DMS-114) was 11.9 µM (inactive), the GI50 (LXFL 529) was 11.4 µM (inactive) and the GI50 (RXF 631) was 13.6 µM (inactive). The GI50 (M19-MEL) was 13.4 µM (inactive).
`N=C(N)SCCc1cn2ccccc2n1` was tested, and the GI50 (HOP-18) was > 100 µM (inactive), the GI50 (DMS-273) was > 100 µM (inactive) and the GI50 (DMS-114) was > 100 µM (inactive). The GI50 (M19-MEL) was > 100 µM (inactive) and the GI50 (XF498) was > 100 µM (inactive).
In the case of `Cc1nnc2n1N=C(c1cc(F)c(Cl)cc1Cl)/C(=C/c1ccc(-c3ccc([N+](=O)[O-])cc3)o1)S2`, the GI50 (BT-549) is reported as 58.2 µM (inactive).
`Cc1c(C)c(S(=O)(=O)N(CCCN)OCCCN)c(C)c2c1OC(C)(C)CC2` was tested, and the GI50 (BT-549) was 17.5 µM (inactive).
`C(CCCCc1nnc(N2CCOCC2)o1)CCCc1nnc(N2CCOCC2)o1` was tested, and the GI50 (BT-549) was > 100 µM (inactive).
With `COc1cc2c(cc1OC)C(N(C)C)C(c1ccccc1)=C2Cl` (stereo unspecified) the GI50 (HOP-18) was 28.5 µM (inactive), the GI50 (DMS-273) was 16.4 µM (inactive) and the GI50 (KM-20L2) was 25 µM (inactive). For the same molecule, the GI50 (RXF 631) was 15.7 µM (inactive) and the GI50 (M19-MEL) was 18.5 µM (inactive).
With `O=c1[nH]c(=O)n(C2CC(O)C(CO)O2)cc1Oc1ccccc1` (stereo unspecified) the GI50 (BT-549) was > 100 µM (inactive).
In the case of `Cn1c(N)cc(=O)nc1N`, the GI50 (BT-549) is reported as > 100 µM (inactive).
`O=C(/C(=C(/Br)I)c1ccccc1)c1ccccc1` was tested, and the GI50 (BT-549) was 22.9 µM (inactive).
With `CC[C@H](C)[C@H]1NC(=O)[C@@H](NC(=O)[C@@H](CC(C)C)N(C)C(=O)C2CCCN2C(=O)[C@H](C)O)[C@@H](C)OC(=O)[C@H](Cc2ccccc2)N(C)C(=O)[C@@H]2CCCN2C(=O)[C@H](CC(C)C)NC(=O)[C@@H](C)C(=O)[C@H](C(C)C)OC(=O)C[C@@H]1O` (stereo partly specified) the GI50 (BT-549) was < 0.00625 µM (active).
With `COC(=O)C1[C@H](c2ccc3c(c2)OCO3)OC(=O)[C@]1(C(=O)OC)C(=O)c1ccc(OC)c(OC)c1` (stereo partly specified) the GI50 (HOP-18) was > 100 µM (inactive), the GI50 (DMS-273) was 25.1 µM (inactive) and the GI50 (KM-20L2) was 56 µM (inactive). For the same molecule, the GI50 (LXFL 529) was 41.5 µM (inactive), the GI50 (M19-MEL) was 51.6 µM (inactive) and the GI50 (XF498) was 81.8 µM (inactive).
For `Oc1ccc(-c2nc(-c3cccnc3)c(-c3ccc(Cl)cc3)[nH]2)cc1`, the GI50 (BT-549) was 15.3 µM (inactive).
With `COc1cc(CNc2ccc(C(C)C)cc2)cc(OC)c1OC` the GI50 (HOP-18) was 34.1 µM (inactive), the GI50 (KM-20L2) was 16.8 µM (inactive) and the GI50 (DMS-114) was 24.9 µM (inactive). The GI50 (LXFL 529) was 18.9 µM (inactive), the GI50 (M19-MEL) was 17.1 µM (inactive) and the GI50 (XF498) was 32.3 µM (inactive).
In the case of `COc1cc(OC)c2c(=O)c(O)c(-c3ccc(OC)c(OC)c3)oc2c1`, the GI50 (BT-549) is reported as 0.755 µM (active).
`COC(=O)C(Cc1c[nH]c2ccccc12)NC(=O)C(Cc1c[nH]c2ccccc12)NC(=O)C(Cc1c[nH]c2ccccc12)NC(=O)C(Cc1c[nH]c2ccccc12)NC(=O)C(Cc1c[nH]c2ccccc12)NC(=O)C(Cc1c[nH]c2ccccc12)NC(=O)C(Cc1c[nH]c2ccccc12)NC(=O)OC(C)(C)C` (stereo unspecified) (Boc-WWWWWWW-OMe; configuration not given here) was tested, and the GI50 (BT-549) was > 100 µM (inactive).
For `COc1cc2oc(-c3ccc(O)cc3O)c(CC=C(C)C)c(=O)c2c(O)c1/C=C/C(C)C` [ARTOCARPIN], the GI50 (BT-549) was 5.45 µM (inactive).
With `C[C@@H](Oc1ccc(Oc2cnc3ccc(Cl)cc3n2)cc1)C(=O)O` [R(+)XK469] the GI50 (BT-549) was > 100 µM (inactive).
